Legend:
[1] = Redox potential of the mediator; assay type: physicochemical
Excerpt: Another specific mediator is [Os(Mebpy)2Pic]^+/2+.

[2] = biological target: GOX (Aspergillus niger, UniProt P13006); conditions: 3+ form of mediator
GOX, sequence (P13006 17-605, species assumed): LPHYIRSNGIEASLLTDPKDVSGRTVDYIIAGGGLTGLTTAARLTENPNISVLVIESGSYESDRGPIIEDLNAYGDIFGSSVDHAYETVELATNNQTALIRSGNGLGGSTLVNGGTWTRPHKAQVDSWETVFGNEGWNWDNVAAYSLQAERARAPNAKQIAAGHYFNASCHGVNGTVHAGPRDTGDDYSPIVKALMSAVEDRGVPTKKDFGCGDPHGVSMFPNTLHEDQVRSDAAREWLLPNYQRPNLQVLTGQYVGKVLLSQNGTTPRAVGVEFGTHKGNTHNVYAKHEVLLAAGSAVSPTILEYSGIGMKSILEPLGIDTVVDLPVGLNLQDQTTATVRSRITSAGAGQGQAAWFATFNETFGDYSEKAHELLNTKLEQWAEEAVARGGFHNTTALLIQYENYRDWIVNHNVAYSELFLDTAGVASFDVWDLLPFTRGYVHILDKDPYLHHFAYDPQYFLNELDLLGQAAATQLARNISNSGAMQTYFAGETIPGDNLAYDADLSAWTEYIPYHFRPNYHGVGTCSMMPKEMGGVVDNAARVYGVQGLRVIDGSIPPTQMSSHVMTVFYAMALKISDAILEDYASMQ

[Os(MeBpy)2(Im)2]^2+/3+
redox potential E^o [1]: 140-154 mV
second order rate constant of electron transfer from GOX to the 3+ mediator [2]: approximately 4.0×10^5 M^−1s^−1
